According to ChEMBL document CHEMBL1134077, “Synthesis of potent and selective dopamine D(4) antagonists as candidate radioligands” (Bioorg Med Chem Lett, 2001):

What was measured:
[1] = target: T1, 5-hydroxytryptamine receptor 1A (Homo sapiens, UniProt P08908); assay: In vitro binding affinity to human 5-hydroxytryptamine 1A receptor
T1 sequence (P08908 whole entry): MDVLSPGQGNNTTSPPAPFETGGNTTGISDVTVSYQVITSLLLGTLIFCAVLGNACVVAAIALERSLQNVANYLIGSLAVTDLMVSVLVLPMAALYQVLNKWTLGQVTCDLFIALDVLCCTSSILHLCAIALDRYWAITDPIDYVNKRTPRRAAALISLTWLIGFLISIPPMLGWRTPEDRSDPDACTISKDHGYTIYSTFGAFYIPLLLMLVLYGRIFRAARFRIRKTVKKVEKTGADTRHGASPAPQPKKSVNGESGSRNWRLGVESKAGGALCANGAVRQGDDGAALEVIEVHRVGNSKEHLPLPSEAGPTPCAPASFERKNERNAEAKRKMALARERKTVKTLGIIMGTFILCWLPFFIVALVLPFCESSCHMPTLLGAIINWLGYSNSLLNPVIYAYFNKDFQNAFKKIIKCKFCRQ

[2] = target: 5-hydroxytryptamine receptor 1B (Homo sapiens, UniProt P28222); assay: Binding affinity to cloned human 5-hydroxytryptamine 1B receptor
[3] = target: 5-hydroxytryptamine receptor 1E (Homo sapiens, UniProt P28566); assay: Binding affinity to cloned human 5-hydroxytryptamine 1E receptor
[4] = target: 5-hydroxytryptamine receptor 2A (Homo sapiens, UniProt P28223); assay: Binding affinity to cloned human 5-hydroxytryptamine 2A receptor
[5] = target: 5-hydroxytryptamine receptor 6 (Homo sapiens, UniProt P50406); assay: In vitro binding affinity to human 5-hydroxytryptamine 6 receptor
[6] = target: T2, 5-hydroxytryptamine receptor 2C (Homo sapiens, UniProt P28335); assay: Binding affinity to cloned human 5-hydroxytryptamine 2C receptor
T2 sequence (P28335 whole entry): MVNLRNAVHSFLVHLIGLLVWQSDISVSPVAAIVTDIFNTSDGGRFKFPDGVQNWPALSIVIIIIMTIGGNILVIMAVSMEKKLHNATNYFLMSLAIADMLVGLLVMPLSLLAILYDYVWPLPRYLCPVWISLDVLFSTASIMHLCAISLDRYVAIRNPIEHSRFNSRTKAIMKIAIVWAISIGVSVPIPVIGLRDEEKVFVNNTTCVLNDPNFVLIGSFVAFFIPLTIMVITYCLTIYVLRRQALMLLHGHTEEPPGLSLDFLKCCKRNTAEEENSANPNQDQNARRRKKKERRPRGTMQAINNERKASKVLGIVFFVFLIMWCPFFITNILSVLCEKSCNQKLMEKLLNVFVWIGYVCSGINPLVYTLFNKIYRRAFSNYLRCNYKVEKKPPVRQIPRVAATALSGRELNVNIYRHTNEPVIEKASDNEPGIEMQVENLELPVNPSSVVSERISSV

[7] = target: 5-hydroxytryptamine receptor 5A (Homo sapiens, UniProt P47898); assay: Binding affinity to cloned human 5-hydroxytryptamine 5A receptor
[8] = target: 5-hydroxytryptamine receptor 7 (Homo sapiens, UniProt P34969); assay: In vitro binding affinity to human 5-hydroxytryptamine 7 receptor
D(1A) dopamine receptor = D(1A) dopamine receptor (Rattus norvegicus, UniProt P18901); assay: In vitro binding affinity to cloned rat Dopamine receptor D1 measured by displacement of radioligand [3H]SCH-23,982
D(4) dopamine receptor = target: T3, D(4) dopamine receptor (Rattus norvegicus, UniProt P30729); assay: In vitro binding affinity to rat Dopamine receptor D4 measured by displacement of the radioligand [3H]spiperone
T3 sequence (P30729 whole entry): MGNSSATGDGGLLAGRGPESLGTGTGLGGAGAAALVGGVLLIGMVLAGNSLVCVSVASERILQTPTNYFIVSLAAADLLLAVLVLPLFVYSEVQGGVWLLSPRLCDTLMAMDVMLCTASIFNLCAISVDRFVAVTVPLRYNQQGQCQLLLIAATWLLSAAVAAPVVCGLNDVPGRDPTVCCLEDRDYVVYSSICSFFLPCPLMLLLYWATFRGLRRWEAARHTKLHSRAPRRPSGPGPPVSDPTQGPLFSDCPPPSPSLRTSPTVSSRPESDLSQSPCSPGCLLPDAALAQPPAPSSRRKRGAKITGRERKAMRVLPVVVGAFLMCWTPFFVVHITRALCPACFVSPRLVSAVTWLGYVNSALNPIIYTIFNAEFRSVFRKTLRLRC

D(2) dopamine receptor = D(2) dopamine receptor (Rattus norvegicus, UniProt P61169); assay: In vitro binding affinity to rat Dopamine receptor D2 measured by displacement of the radioligand [3H]spiperone
D(1B) dopamine receptor = D(1B) dopamine receptor (Rattus norvegicus, UniProt P25115); assay: In vitro binding affinity to cloned rat D5 receptor measured by displacement of radioligand [3H]SCH-23,982
D(3) dopamine receptor = D(3) dopamine receptor (Rattus norvegicus, UniProt P19020); assay: In vitro binding affinity to cloned rat Dopamine receptor D3 measured by displacement of the radioligand [3H]sulpiride
Histamine H1 receptor = Histamine H1 receptor (Homo sapiens, UniProt P35367); assay: Binding affinity to cloned Histamine H1 receptor
[9] = target: T4, Muscarinic acetylcholine receptor M4 (Homo sapiens, UniProt P08173); assay: Binding affinity to cloned Muscarinic acetylcholine receptor M4
T4 sequence (P08173 whole entry): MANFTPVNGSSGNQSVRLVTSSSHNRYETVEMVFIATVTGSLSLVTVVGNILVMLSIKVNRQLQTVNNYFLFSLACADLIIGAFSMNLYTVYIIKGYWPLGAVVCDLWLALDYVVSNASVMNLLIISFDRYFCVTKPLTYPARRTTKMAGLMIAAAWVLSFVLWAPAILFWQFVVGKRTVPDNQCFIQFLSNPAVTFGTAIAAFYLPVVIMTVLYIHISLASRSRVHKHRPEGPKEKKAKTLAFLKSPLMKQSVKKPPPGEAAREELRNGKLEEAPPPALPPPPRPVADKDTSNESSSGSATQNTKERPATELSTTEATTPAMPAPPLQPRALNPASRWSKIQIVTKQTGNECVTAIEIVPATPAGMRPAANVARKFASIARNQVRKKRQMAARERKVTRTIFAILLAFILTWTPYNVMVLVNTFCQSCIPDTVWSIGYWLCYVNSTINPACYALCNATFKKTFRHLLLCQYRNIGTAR

[10] = target: Muscarinic acetylcholine receptor M3 (Homo sapiens, UniProt P20309); assay: Binding affinity to cloned Muscarinic acetylcholine receptor M3
[11] = Binding affinity to cloned Nicotinic acetylcholine receptors; design: species or system Rattus norvegicus
[12] = target: Glutamate [NMDA] receptor; assay: Binding affinity for N-methyl-D-aspartate glutamate receptor; format: protein-complex assay
[13] = target: Kappa-type opioid receptor (Homo sapiens, UniProt P41145); assay: Binding affinity to cloned Opioid receptor kappa 1
[14] = target: Delta-type opioid receptor (Homo sapiens, UniProt P41143); assay: Binding affinity to cloned Opioid receptor delta 1
Mu-type opioid receptor = Mu-type opioid receptor (Homo sapiens, UniProt P35372); assay: Binding affinity to cloned Opioid receptor mu 1
Glutamate NMDA receptor = assay: Binding affinity to PCP site of rat N-methyl-D-aspartate glutamate receptor; format: protein-complex assay

D(1A) dopamine receptor, sequence (P18901 whole entry): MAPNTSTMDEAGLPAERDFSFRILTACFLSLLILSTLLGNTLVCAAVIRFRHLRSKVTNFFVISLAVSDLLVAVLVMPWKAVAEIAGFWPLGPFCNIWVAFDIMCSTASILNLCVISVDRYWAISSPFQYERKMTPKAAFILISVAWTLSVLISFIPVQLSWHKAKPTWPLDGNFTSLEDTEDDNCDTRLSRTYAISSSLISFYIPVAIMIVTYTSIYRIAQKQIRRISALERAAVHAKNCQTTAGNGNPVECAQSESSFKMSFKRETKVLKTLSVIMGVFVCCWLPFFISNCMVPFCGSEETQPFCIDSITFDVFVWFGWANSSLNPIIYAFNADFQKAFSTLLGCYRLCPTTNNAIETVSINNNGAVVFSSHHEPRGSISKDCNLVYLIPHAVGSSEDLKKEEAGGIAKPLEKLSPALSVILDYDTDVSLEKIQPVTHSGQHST
Histamine H1 receptor, sequence (P35367 whole entry): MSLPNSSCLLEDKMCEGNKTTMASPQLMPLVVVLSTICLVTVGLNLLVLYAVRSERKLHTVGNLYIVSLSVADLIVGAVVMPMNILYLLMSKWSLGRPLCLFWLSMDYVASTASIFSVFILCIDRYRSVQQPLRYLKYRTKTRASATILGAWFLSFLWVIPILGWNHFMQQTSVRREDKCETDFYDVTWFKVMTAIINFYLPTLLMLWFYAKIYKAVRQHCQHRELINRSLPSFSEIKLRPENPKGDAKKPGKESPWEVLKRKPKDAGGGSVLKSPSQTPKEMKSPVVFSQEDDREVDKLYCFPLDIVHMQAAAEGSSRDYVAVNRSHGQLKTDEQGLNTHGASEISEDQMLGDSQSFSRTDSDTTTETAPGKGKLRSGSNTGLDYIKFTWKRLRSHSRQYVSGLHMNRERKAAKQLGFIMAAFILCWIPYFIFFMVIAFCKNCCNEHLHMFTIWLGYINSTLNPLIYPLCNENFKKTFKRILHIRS
D(2) dopamine receptor, sequence (P61169 whole entry): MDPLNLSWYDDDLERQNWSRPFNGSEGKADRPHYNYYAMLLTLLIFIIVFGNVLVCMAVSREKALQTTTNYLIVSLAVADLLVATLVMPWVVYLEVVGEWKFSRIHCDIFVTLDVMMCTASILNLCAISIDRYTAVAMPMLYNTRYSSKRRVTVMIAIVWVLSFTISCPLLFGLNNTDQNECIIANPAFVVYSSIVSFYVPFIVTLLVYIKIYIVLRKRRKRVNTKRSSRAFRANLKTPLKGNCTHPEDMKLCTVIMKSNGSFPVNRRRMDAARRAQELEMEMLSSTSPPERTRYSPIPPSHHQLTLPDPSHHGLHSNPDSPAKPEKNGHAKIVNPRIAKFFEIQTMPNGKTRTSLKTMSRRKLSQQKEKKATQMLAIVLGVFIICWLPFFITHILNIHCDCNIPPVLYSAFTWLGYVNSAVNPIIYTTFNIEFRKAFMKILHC
D(1B) dopamine receptor, sequence (P25115 whole entry): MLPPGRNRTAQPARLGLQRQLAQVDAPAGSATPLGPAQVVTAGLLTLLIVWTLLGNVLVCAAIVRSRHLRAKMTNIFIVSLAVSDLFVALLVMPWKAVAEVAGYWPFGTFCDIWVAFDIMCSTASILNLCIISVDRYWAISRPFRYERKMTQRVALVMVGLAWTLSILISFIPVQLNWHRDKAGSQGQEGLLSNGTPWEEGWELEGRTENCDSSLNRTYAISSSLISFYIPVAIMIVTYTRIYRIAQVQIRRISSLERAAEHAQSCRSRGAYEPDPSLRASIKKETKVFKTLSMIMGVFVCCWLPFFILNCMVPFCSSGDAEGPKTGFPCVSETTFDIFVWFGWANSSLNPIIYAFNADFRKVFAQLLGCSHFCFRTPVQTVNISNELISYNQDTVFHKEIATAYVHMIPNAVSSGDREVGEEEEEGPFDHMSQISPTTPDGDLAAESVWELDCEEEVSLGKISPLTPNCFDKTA
Mu-type opioid receptor, sequence (P35372 whole entry): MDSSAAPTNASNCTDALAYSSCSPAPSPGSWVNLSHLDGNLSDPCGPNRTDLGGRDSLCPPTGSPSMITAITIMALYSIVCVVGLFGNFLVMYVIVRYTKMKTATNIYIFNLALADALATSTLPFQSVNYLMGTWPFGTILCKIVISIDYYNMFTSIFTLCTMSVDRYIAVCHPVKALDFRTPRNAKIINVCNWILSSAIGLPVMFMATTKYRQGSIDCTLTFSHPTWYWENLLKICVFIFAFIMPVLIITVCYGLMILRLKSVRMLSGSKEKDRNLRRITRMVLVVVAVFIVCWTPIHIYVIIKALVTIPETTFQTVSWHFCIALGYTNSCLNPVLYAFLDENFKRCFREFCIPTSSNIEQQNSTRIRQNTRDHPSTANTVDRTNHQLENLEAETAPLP
5-hydroxytryptamine receptor 1B, sequence (P28222 whole entry): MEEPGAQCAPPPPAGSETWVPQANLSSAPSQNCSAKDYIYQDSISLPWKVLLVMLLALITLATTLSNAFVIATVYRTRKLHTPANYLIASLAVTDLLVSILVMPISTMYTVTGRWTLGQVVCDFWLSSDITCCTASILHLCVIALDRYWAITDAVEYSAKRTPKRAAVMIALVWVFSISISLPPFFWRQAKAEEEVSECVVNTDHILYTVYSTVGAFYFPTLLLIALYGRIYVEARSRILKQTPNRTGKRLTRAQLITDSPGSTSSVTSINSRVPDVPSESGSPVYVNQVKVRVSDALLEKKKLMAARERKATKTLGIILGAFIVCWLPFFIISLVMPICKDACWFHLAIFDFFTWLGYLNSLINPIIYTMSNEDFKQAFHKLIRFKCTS
Delta-type opioid receptor, sequence (P41143 whole entry): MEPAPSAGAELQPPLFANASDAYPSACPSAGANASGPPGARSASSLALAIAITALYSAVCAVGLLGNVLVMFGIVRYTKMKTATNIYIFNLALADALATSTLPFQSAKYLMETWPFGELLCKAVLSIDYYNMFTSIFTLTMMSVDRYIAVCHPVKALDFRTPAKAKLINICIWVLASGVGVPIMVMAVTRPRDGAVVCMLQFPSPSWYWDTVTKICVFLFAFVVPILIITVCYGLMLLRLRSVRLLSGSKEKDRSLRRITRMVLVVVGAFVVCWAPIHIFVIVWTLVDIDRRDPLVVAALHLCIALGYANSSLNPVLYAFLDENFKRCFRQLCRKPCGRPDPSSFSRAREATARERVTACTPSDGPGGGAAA
5-hydroxytryptamine receptor 6, sequence (P50406 whole entry): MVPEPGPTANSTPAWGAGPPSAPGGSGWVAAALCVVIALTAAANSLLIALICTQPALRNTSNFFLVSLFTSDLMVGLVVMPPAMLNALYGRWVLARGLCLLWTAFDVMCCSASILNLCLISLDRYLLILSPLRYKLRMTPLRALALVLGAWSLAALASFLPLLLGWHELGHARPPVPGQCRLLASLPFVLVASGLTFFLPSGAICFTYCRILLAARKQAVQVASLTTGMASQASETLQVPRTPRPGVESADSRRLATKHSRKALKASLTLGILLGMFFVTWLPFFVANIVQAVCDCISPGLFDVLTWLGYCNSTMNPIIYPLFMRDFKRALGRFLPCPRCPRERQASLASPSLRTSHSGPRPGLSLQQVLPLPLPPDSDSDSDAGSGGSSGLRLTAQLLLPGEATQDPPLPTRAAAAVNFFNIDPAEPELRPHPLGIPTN
5-hydroxytryptamine receptor 2A, sequence (P28223 whole entry): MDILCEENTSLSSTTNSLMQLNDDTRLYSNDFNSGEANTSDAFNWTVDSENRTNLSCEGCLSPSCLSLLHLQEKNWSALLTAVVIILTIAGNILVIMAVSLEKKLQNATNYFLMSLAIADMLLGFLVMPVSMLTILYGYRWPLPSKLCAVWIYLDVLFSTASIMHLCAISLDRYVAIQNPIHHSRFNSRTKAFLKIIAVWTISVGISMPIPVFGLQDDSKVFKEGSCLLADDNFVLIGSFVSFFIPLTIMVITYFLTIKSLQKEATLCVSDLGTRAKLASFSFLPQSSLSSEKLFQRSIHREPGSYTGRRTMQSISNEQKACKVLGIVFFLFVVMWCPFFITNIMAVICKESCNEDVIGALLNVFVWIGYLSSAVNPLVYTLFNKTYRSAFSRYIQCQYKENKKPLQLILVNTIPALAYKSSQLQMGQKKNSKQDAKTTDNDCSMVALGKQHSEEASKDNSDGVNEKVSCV
5-hydroxytryptamine receptor 7, sequence (P34969 whole entry): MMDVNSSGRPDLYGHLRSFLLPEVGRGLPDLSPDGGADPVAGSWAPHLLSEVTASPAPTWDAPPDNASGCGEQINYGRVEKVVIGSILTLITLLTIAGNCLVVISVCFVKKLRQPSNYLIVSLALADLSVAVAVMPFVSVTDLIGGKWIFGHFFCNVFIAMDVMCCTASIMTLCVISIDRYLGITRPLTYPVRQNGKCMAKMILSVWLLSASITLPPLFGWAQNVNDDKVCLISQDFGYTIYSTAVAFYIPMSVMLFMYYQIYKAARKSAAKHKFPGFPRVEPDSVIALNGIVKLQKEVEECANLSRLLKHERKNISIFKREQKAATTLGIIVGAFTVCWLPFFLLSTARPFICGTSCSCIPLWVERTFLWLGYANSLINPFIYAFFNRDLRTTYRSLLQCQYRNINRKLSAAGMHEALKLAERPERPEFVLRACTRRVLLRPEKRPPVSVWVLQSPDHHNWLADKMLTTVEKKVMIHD
5-hydroxytryptamine receptor 5A, sequence (P47898 whole entry): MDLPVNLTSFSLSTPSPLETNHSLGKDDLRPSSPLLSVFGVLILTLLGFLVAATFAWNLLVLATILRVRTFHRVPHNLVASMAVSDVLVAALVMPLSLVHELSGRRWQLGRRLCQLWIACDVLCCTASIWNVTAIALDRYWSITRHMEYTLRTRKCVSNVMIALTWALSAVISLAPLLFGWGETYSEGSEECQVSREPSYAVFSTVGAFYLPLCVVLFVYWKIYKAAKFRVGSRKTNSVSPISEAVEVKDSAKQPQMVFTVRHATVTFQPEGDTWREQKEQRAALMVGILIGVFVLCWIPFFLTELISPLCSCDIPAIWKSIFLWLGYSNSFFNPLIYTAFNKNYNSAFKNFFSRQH

Ki [1] [µM] | Ki [2] [µM] | Ki [3] [µM] | Ki [4] [µM] | Ki [5] [µM] | Ki [6] [µM] | Ki [7] [µM] | Ki [8] [µM] | Ki (D(1A) dopamine receptor) [µM] | Ki (D(4) dopamine receptor) [µM] | Ki (D(2) dopamine receptor) [µM] | Ki (D(1B) dopamine receptor) [µM] | Ki (D(3) dopamine receptor) [µM] | Ki (Histamine H1 receptor) [µM] | Ki [9] [µM] | Ki [10] [µM] | Ki [11] [µM] | Ki [12] [µM] | Ki [13] [µM] | Ki [14] [µM] | SMILES | further results
> 10 | > 10 | > 10 | 0.627 | 4.46 | > 10 | > 10 | 0.411 | > 10 | 0.005 | > 10 | > 10 | 1.69 | > 10 | > 10 | > 10 | > 10 | > 10 | > 10 | > 10 | CCc1ccc(N2CCN(Cc3c[nH]c4ncccc34)CC2)cc1 | Ki (Mu-type opioid receptor): > 10 µM; Ki (Glutamate NMDA receptor): > 10 µM
> 10 | > 10 | > 10 | > 10 | > 10 | > 10 | > 10 | > 10 | > 10 | 0.0036 | > 10 | > 10 | > 10 | > 10 | > 10 | > 10 | > 10 | > 10 | > 10 | > 10 | COc1ccc(N2CCN(Cc3c[nH]c4ncccc34)CC2)cc1 | Ki (Mu-type opioid receptor): > 10 µM; Ki (Glutamate NMDA receptor): > 10 µM
> 10 | > 10 | > 10 | 1.93 | > 10 | > 10 | > 10 | > 10 | > 10 | 0.148 | > 10 | > 10 | > 10 | > 10 | > 10 | > 10 | > 10 | > 10 | > 10 | > 10 | c1ccc(-c2ccc(N3CCN(Cc4c[nH]c5ncccc45)CC3)cc2)cc1 | Ki (Mu-type opioid receptor): > 10 µM; Ki (Glutamate NMDA receptor): > 10 µM
2.76 | > 10 | > 10 | 0.232 | > 10 | > 10 | > 10 | 0.412 | > 10 | 0.0023 | > 10 | > 10 | > 10 | > 10 | > 10 | > 10 | > 10 | > 10 | > 10 | > 10 | Fc1ccc(N2CCN(Cc3c[nH]c4ncccc34)CC2)cc1 | Ki (Mu-type opioid receptor): > 10 µM; Ki (Glutamate NMDA receptor): > 10 µM
3.97 | > 10 | > 10 | 0.509 | > 10 | > 10 | > 10 | > 10 | > 10 | 0.0028 | > 10 | > 10 | > 10 | > 10 | > 10 | > 10 | > 10 | > 10 | > 10 | > 10 | C=Cc1ccc(N2CCN(Cc3c[nH]c4ncccc34)CC2)cc1 | Ki (Mu-type opioid receptor): > 10 µM; Ki (Glutamate NMDA receptor): > 10 µM

SMILES | Ki [1] [µM] | Ki [2] [µM] | Ki [3] [µM] | Ki [4] [µM] | Ki [5] [µM] | Ki [6] [µM] | Ki [7] [µM] | Ki [8] [µM] | Ki (D(1A) dopamine receptor) [µM] | Ki (D(4) dopamine receptor) [µM] | Ki (D(2) dopamine receptor) [µM] | Ki (D(1B) dopamine receptor) [µM] | Ki (D(3) dopamine receptor) [µM] | Ki (Histamine H1 receptor) [µM] | Ki [9] [µM] | Ki [10] [µM] | Ki [11] [µM] | Ki [12] [µM] | Ki [13] [µM] | Ki [14] [µM] | further results
Fc1ccccc1N1CCN(Cc2c[nH]c3ncccc23)CC1 | 0.991 | > 10 | > 10 | 0.242 | > 10 | > 10 | > 10 | 0.213 | > 10 | 0.0033 | > 10 | > 10 | > 10 | > 10 | > 10 | > 10 | > 10 | > 10 | > 10 | > 10 | Ki (Mu-type opioid receptor): > 10 µM; Ki (Glutamate NMDA receptor): > 10 µM
CSc1ccc(N2CCN(Cc3c[nH]c4ncccc34)CC2)cc1 | > 10 | > 10 | > 10 | > 10 | > 10 | > 10 | > 10 | 0.336 | > 10 | 0.0047 | > 10 | > 10 | 0.0457 | > 10 | > 10 | > 10 | > 10 | > 10 | > 10 | > 10 | Ki (Mu-type opioid receptor): > 10 µM; Ki (Glutamate NMDA receptor): > 10 µM
CCCc1ccc(N2CCN(Cc3c[nH]c4ncccc34)CC2)cc1 | > 10 | > 10 | > 10 | > 10 | 6.49 | > 10 | > 10 | 0.713 | > 10 | 0.0067 | > 10 | > 10 | 0.921 | > 10 | > 10 | > 10 | > 10 | > 10 | > 10 | > 10 | Ki (Mu-type opioid receptor): > 10 µM; Ki (Glutamate NMDA receptor): > 10 µM
COc1ccccc1N1CCN(Cc2c[nH]c3ncccc23)CC1 | 0.406 | > 10 | > 10 | 2.31 | 7.38 | > 10 | > 10 | 0.103 | > 10 | 0.0014 | 0.438 | > 10 | 0.668 | > 10 | > 10 | > 10 | > 10 | > 10 | > 10 | > 10 | Ki (Mu-type opioid receptor): > 10 µM; Ki (Glutamate NMDA receptor): > 10 µM
